The text below walks through data of ChEMBL document CHEMBL5614395 (Eur J Med Chem, 2024).

A word on the Papp A→B: it is the apparent permeability from the apical to the basolateral side of a cell layer.

The series can be described thus: in vitro. As to conditions: human, Caco-2.
On to `COc1cc(-n2ncc3c(-c4cccc(-c5ccc(CN[C@H]6C[C@@H](O)C6)c(OC)n5)c4Cl)cccc32)cc(OC)c1CN(C)C12CCC(C(=O)O)(CC1)CC2`, for which the Papp A→B stood at 0.4 ×10⁻⁶ cm/s.
`COc1cc(-n2ncc3c(-c4cccc(-c5ccc(CN(C)C67CCC(C(=O)O)(CC6)CC7)c(OC)n5)c4Cl)cccc32)cc(OC)c1CN(C)[C@H]1C[C@H](O)C1` gave a Papp A→B of 3 ×10⁻⁶ cm/s.
Next, `COc1cc(-n2ncc3c(-c4cccc(-c5ccc(CN[C@H]6C[C@@H](O)C6)c(OC)n5)c4Cl)cccc32)cc(OC)c1CN1CC(C(=O)O)C1`: 0.1 ×10⁻⁶ cm/s.
